We go through eight compounds from ChEMBL document CHEMBL1909046, “DrugMatrix in vitro pharmacology data”.

SMILES strings stand for the structures. pIC50, pKi: −log10 of the molar value.

Test system in the first experiment: not listed separately
As to the kind of experiment: DRUGMATRIX: Glutamate, AMPA radioligand binding (ligand: [3H] AMPA). The class given is cell membranes, Rattus norvegicus, Wistar, Cerebral cortex, Membrane. To be noted: Not Active = under 50% inhibition at 10 µM.
As to `Nc1c(CC(=O)O)cccc1C(=O)c1ccc(Br)cc1` [BROMFENAC], the IC50 result is “Not Active” and the Ki result is “Not Active”.

`CCCCN1CCCCC1C(=O)Nc1c(C)cccc1C.Cl` (centres undefined) [BUPIVACAINE HYDROCHLORIDE]: the IC50 result is reported as “Not Active” and the Ki result is “Not Active”.

Turning to `O=C1CC2(CCCC2)CC(=O)N1CCCCN1CCN(c2ncccn2)CC1` [BUSPIRONE], the IC50 entry is given as “Not Active” and the Ki entry is recorded as “Not Active”.

With `C[C@@]12C(=O)OC(=O)[C@]1(C)[C@H]1CC[C@@H]2O1` [CANTHARIDIN], the IC50 result is given as “Not Active” and the Ki entry is on record as “Not Active”.

As for `O=NN(CCCl)C(=O)NCCCl` [CARMUSTINE], the IC50 result is “Not Active” and the Ki result is given as “Not Active”.

As for `CC1=C(C(=O)O)N2C(=O)[C@@H](NC(=O)[C@H](N)c3ccccc3)[C@H]2SC1` [CEPHALEXIN ANHYDROUS], the IC50 result is “Not Active” and the Ki result was “Not Active”.

Take `O=C(N[C@H](CO)[C@H](O)c1ccc([N+](=O)[O-])cc1)C(Cl)Cl` [CHLORAMPHENICOL]: the IC50 entry is given as “Not Active” and the Ki entry is “Not Active”.

With `ClC(Cl)Cl` [CHLOROFORM], the IC50 result is reported as “Not Active” and the Ki result is reported as “Not Active”.

Test system in a further experiment: not listed separately
As to the kind of experiment: DRUGMATRIX: Atrial Natriuretic Factor (ANF) radioligand binding (ligand: [125I] ANF (rat)). To be noted: Not Active = under 50% inhibition at 10 µM. The class given is cell membranes, Cavia porcellus, Dunkin-Hartley, Adrenal gland, Membrane.
In the case of `Nc1c(CC(=O)O)cccc1C(=O)c1ccc(Br)cc1` [BROMFENAC], the IC50 entry was “Not Active” and the Ki result is recorded as “Not Active”.

As for `CCCCN1CCCCC1C(=O)Nc1c(C)cccc1C.Cl` (centres undefined) [BUPIVACAINE HYDROCHLORIDE], the IC50 entry is “Not Active” and the Ki result is recorded as “Not Active”.

For `O=C1CC2(CCCC2)CC(=O)N1CCCCN1CCN(c2ncccn2)CC1` [BUSPIRONE], the IC50 entry was “Not Active” and the Ki entry was “Not Active”.

Regarding `C[C@@]12C(=O)OC(=O)[C@]1(C)[C@H]1CC[C@@H]2O1` [CANTHARIDIN], the IC50 entry is listed as “Not Active” and the Ki entry was “Not Active”.

`O=NN(CCCl)C(=O)NCCCl` [CARMUSTINE]: the IC50 result is “Not Active” and the Ki result is listed as “Not Active”.

Turning to `CC1=C(C(=O)O)N2C(=O)[C@@H](NC(=O)[C@H](N)c3ccccc3)[C@H]2SC1` [CEPHALEXIN ANHYDROUS], the IC50 result is reported as “Not Active” and the Ki result is “Not Active”.

As to `O=C(N[C@H](CO)[C@H](O)c1ccc([N+](=O)[O-])cc1)C(Cl)Cl` [CHLORAMPHENICOL], the IC50 result is given as “Not Active” and the Ki result was “Not Active”.

Take `ClC(Cl)Cl` [CHLOROFORM]: the IC50 result was “Not Active” and the Ki entry was “Not Active”.

Test system in a further experiment: not listed separately
As to the kind of experiment: DRUGMATRIX: GABAA, Flunitrazepam, Central radioligand binding (ligand: [3H] Flunitrazepam). The class given is cell membranes, Rattus norvegicus, Wistar, Brain, Membrane. Particulars: Not Active = under 50% inhibition at 10 µM.
For the compound `Nc1c(CC(=O)O)cccc1C(=O)c1ccc(Br)cc1` [BROMFENAC], the IC50 entry was “Not Active” and the Ki result was “Not Active”.

On to `CCCCN1CCCCC1C(=O)Nc1c(C)cccc1C.Cl` (centres undefined) [BUPIVACAINE HYDROCHLORIDE], for which the IC50 entry is reported as “Not Active” and the Ki entry was “Not Active”.

As to `O=C1CC2(CCCC2)CC(=O)N1CCCCN1CCN(c2ncccn2)CC1` [BUSPIRONE], the IC50 result was “Not Active” and the Ki result is recorded as “Not Active”.

For the compound `C[C@@]12C(=O)OC(=O)[C@]1(C)[C@H]1CC[C@@H]2O1` [CANTHARIDIN], the IC50 result is “Not Active” and the Ki result was “Not Active”.

Take `O=NN(CCCl)C(=O)NCCCl` [CARMUSTINE]: the IC50 result was “Not Active” and the Ki result is on record as “Not Active”.

Consider `CC1=C(C(=O)O)N2C(=O)[C@@H](NC(=O)[C@H](N)c3ccccc3)[C@H]2SC1` [CEPHALEXIN ANHYDROUS], for which the IC50 result is “Not Active” and the Ki entry is “Not Active”.

On to `O=C(N[C@H](CO)[C@H](O)c1ccc([N+](=O)[O-])cc1)C(Cl)Cl` [CHLORAMPHENICOL], for which the IC50 entry was “Not Active” and the Ki entry is reported as “Not Active”.

Turning to `ClC(Cl)Cl` [CHLOROFORM], the IC50 entry was “Not Active” and the Ki result is recorded as “Not Active”.

In another experiment the target is C-C chemokine receptor type 2 (Homo sapiens, UniProt P41597). The class given is cell membranes, CHO-K1, Membrane. To be noted: cho-k1. Also: in other assays of this panel Not Active means under 50% inhibition at 10 µM.
C-C chemokine receptor type 2, sequence (P41597 whole entry): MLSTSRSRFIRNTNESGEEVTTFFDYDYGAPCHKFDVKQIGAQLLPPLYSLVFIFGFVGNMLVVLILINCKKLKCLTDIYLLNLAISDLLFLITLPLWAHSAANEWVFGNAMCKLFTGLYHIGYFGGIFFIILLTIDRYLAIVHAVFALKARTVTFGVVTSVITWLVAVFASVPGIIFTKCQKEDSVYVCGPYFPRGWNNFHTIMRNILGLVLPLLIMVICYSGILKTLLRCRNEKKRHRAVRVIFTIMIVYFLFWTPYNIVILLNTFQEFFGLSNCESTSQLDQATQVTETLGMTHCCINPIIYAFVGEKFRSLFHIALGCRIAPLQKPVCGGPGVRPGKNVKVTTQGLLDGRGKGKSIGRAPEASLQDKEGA
In the case of `Nc1c(CC(=O)O)cccc1C(=O)c1ccc(Br)cc1` [BROMFENAC], the IC50 entry is on record as “Not Active”.

Regarding `CCCCN1CCCCC1C(=O)Nc1c(C)cccc1C.Cl` (centres undefined) [BUPIVACAINE HYDROCHLORIDE], the IC50 entry is “Not Active”.

Turning to `O=C1CC2(CCCC2)CC(=O)N1CCCCN1CCN(c2ncccn2)CC1` [BUSPIRONE], the IC50 entry was “Not Active”.

As to `C[C@@]12C(=O)OC(=O)[C@]1(C)[C@H]1CC[C@@H]2O1` [CANTHARIDIN], the IC50 entry is on record as “Not Active”.

`O=NN(CCCl)C(=O)NCCCl` [CARMUSTINE]: the IC50 entry is “Not Active”.

Take `CC1=C(C(=O)O)N2C(=O)[C@@H](NC(=O)[C@H](N)c3ccccc3)[C@H]2SC1` [CEPHALEXIN ANHYDROUS]: the IC50 result is “Not Active”.

On to `O=C(N[C@H](CO)[C@H](O)c1ccc([N+](=O)[O-])cc1)C(Cl)Cl` [CHLORAMPHENICOL], for which the IC50 entry was “Not Active”.

With `ClC(Cl)Cl` [CHLOROFORM], the IC50 result is given as “Not Active”.

Test system in the next experiment: not listed separately
As to the kind of experiment: DRUGMATRIX: Glutamate, Kainate radioligand binding (ligand: [3H] Kainic acid). The class given is cell membranes, Rattus norvegicus, Wistar, Brain, Membrane. To be noted: Not Active = under 50% inhibition at 10 µM.
In the case of `Nc1c(CC(=O)O)cccc1C(=O)c1ccc(Br)cc1` [BROMFENAC], the IC50 result is listed as “Not Active” and the Ki result is “Not Active”.

For `CCCCN1CCCCC1C(=O)Nc1c(C)cccc1C.Cl` (centres undefined) [BUPIVACAINE HYDROCHLORIDE], the IC50 result is reported as “Not Active” and the Ki result is “Not Active”.

Take `O=C1CC2(CCCC2)CC(=O)N1CCCCN1CCN(c2ncccn2)CC1` [BUSPIRONE]: the IC50 result is “Not Active” and the Ki entry is “Not Active”.

For `C[C@@]12C(=O)OC(=O)[C@]1(C)[C@H]1CC[C@@H]2O1` [CANTHARIDIN], the IC50 result was “Not Active” and the Ki entry was “Not Active”.

In the case of `O=NN(CCCl)C(=O)NCCCl` [CARMUSTINE], the IC50 entry is reported as “Not Active” and the Ki entry is “Not Active”.

With `CC1=C(C(=O)O)N2C(=O)[C@@H](NC(=O)[C@H](N)c3ccccc3)[C@H]2SC1` [CEPHALEXIN ANHYDROUS], the IC50 result is listed as “Not Active” and the Ki entry is reported as “Not Active”.

Turning to `O=C(N[C@H](CO)[C@H](O)c1ccc([N+](=O)[O-])cc1)C(Cl)Cl` [CHLORAMPHENICOL], the IC50 result is reported as “Not Active” and the Ki result is on record as “Not Active”.

`ClC(Cl)Cl` [CHLOROFORM]: the IC50 result is recorded as “Not Active” and the Ki entry is listed as “Not Active”.

A further experiment deals with T1, 3-hydroxy-3-methylglutaryl-coenzyme A reductase (Homo sapiens, UniProt P04035).
T1 sequence (P04035 whole entry): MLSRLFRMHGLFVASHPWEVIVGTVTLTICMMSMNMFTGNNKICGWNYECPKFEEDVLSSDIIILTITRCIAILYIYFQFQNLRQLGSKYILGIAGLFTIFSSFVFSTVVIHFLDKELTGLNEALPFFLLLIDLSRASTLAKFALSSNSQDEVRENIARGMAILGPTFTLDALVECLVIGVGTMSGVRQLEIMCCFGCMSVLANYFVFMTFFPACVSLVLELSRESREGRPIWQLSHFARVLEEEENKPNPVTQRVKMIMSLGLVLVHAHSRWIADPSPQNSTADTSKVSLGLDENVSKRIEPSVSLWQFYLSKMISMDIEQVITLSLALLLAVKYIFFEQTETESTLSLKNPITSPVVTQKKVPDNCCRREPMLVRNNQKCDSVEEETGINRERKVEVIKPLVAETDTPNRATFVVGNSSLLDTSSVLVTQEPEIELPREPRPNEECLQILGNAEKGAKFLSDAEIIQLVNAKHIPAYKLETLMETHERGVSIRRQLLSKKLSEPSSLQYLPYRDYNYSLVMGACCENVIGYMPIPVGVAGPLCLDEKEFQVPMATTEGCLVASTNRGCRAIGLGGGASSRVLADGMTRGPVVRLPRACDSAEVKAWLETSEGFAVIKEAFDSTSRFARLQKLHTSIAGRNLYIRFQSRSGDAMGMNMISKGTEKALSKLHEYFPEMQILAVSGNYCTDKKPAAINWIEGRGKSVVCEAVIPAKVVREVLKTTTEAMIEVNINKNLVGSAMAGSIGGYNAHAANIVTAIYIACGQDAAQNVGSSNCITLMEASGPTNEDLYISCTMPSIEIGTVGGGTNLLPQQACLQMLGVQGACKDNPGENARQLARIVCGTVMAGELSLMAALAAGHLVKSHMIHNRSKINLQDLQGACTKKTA
On the set-up: species or system Escherichia coli.
Settings: not given
Take `Nc1c(CC(=O)O)cccc1C(=O)c1ccc(Br)cc1` [BROMFENAC]: the IC50 entry is listed as “Not Active”.

For the compound `CCCCN1CCCCC1C(=O)Nc1c(C)cccc1C.Cl` (centres undefined) [BUPIVACAINE HYDROCHLORIDE], the IC50 result was “Not Active”.

`O=C1CC2(CCCC2)CC(=O)N1CCCCN1CCN(c2ncccn2)CC1` [BUSPIRONE]: the IC50 entry is recorded as “Not Active”.

For the compound `C[C@@]12C(=O)OC(=O)[C@]1(C)[C@H]1CC[C@@H]2O1` [CANTHARIDIN], the IC50 entry is recorded as “Not Active”.

In the case of `O=NN(CCCl)C(=O)NCCCl` [CARMUSTINE], the IC50 result is recorded as “Not Active”.

Turning to `CC1=C(C(=O)O)N2C(=O)[C@@H](NC(=O)[C@H](N)c3ccccc3)[C@H]2SC1` [CEPHALEXIN ANHYDROUS], the IC50 result is recorded as “Not Active”.

For `O=C(N[C@H](CO)[C@H](O)c1ccc([N+](=O)[O-])cc1)C(Cl)Cl` [CHLORAMPHENICOL], the IC50 result is given as “Not Active”.

Regarding `ClC(Cl)Cl` [CHLOROFORM], the IC50 result was “Not Active”.

In another experiment the target is 5-hydroxytryptamine receptor 2B (Homo sapiens, UniProt P41595). Type of experiment: cell membranes, CHO-K1, Membrane. To be noted: cho-k1. Also: in other assays of this panel Not Active means under 50% inhibition at 10 µM.
5-hydroxytryptamine receptor 2B, sequence (P41595 whole entry): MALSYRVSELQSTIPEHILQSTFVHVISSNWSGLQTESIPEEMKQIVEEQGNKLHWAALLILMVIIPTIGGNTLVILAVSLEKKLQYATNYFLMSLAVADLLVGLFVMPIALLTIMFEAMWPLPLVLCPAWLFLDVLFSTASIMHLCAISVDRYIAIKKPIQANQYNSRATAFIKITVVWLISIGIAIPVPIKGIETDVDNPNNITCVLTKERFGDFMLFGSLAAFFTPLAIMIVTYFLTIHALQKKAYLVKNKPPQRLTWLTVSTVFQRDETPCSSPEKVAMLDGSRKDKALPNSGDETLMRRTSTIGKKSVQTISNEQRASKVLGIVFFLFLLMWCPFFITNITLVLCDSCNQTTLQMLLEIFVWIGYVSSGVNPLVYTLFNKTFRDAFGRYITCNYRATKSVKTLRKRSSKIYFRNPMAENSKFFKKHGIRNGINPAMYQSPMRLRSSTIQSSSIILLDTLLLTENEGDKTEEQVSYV
As to `Nc1c(CC(=O)O)cccc1C(=O)c1ccc(Br)cc1` [BROMFENAC], the IC50 entry is on record as “Not Active”.

Regarding `CCCCN1CCCCC1C(=O)Nc1c(C)cccc1C.Cl` (centres undefined) [BUPIVACAINE HYDROCHLORIDE], the IC50 entry is “Not Active”.

Regarding `C[C@@]12C(=O)OC(=O)[C@]1(C)[C@H]1CC[C@@H]2O1` [CANTHARIDIN], the IC50 result is reported as “Not Active”.

For `O=NN(CCCl)C(=O)NCCCl` [CARMUSTINE], the IC50 result is on record as “Not Active”.

As for `CC1=C(C(=O)O)N2C(=O)[C@@H](NC(=O)[C@H](N)c3ccccc3)[C@H]2SC1` [CEPHALEXIN ANHYDROUS], the IC50 result is given as “Not Active”.

For the compound `O=C(N[C@H](CO)[C@H](O)c1ccc([N+](=O)[O-])cc1)C(Cl)Cl` [CHLORAMPHENICOL], the IC50 entry is “Not Active”.

With `ClC(Cl)Cl` [CHLOROFORM], the IC50 entry is “Not Active”.

The same experiment, now with this note: read-out: IC50.
The pIC50 is the IC50 on a negative log10 scale, so that one unit is a factor of ten. Consider `O=C1CC2(CCCC2)CC(=O)N1CCCCN1CCN(c2ncccn2)CC1` [BUSPIRONE], for which the negative logarithm of the IC50 (pIC50) was 6.12.

The experiment is the same for the next values; noted with them: read-out: Ki.
As a reminder, the pKi is −log10 of the Ki, conventionally taken in molar units. With `O=C1CC2(CCCC2)CC(=O)N1CCCCN1CCN(c2ncccn2)CC1` [BUSPIRONE], the pKi was 6.32.
